Experimental findings from patent US20150283051A1, “DERIVATIVE OF NOVEL POLYHYDROXY AROMATIC COMPOUND AND USE THEREOF” (RNS CO.,LTD., priority 2012, published 2015) are described below.

For series [1], the system named is B-16 mouse melanoma cells. Kind of series: Measurement of melanin generation inhibitory effects in cultured melanoma cells. Format: cell-based. The conditions noted are these: for inhibition at 20 µg/mL: concentration 20 μg/ml.
Series [2] deals with B-16 mouse melanoma cells. Conditions: 1 μg/ml or more. The method, then: Then, these cells were treated using trypsin, separated from a culture vessel and centrifuged, then, melanin was extracted from the cells. Melanin was dissolved by adding 1 ml of 1N sodium hydroxide solution to the extract and subjected to measurement of absorbance at 475 nm, and an amount of the generated melanin was expressed by an absorbance per unit number of cells (10^6 cells) (this procedure was repeated three times).

Where [3] appears, read: Mus musculus, 72 h, concentration 5 μg/ml, cultured 3 days, relative to control, read-out: Inhibition rate (melanin generation).
The mark [4] stands for this setting: Mus musculus, 72 h, cultured 3 days, relative to control, read-out: Inhibition rate (melanin generation).

Take `CCCCC(CC)C(=O)Oc1cc(OC(=O)C(CC)CCCC)c2ccccc2c1` (stereo not drawn) [Material in Example 8, 1,3-bis-(2-ethylhexanoyloxy)-naphthalene]: the inhibition at 5 µg/mL in series [1] (setting [3]) was 35%. Also, the inhibition at 20 µg/mL in series [1] (setting [4]) amounted to 63%.
For `CCCCC(CC)C(=O)Oc1cc(OC(=O)C(CC)CCCC)c2c(=O)c(OC(=O)C(CC)CCCC)c(-c3ccccc3)oc2c1` (stereo not drawn) [Material in Example 13, 3,5,7-tris-(2-ethylhexanoyloxy)-flavone], in that order: 30% and 63%.
For `CCCCC(CC)C(=O)Oc1ccnc(OC(=O)C(CC)CCCC)c1` (stereo not drawn) [Material in Example 9, 2,4-bis-(2-ethylhexanoyloxy)-pyridine], in that order: 41% and 67%.
Turning to `Oc1ccc(O)cc1` [Hydroquinone, hydroquinone, reference compound], the inhibition at 1 µg/mL in series [1] (Mus musculus, 72 h, concentration 1 μg/ml, cultured 3 days, relative to control, read-out: Inhibition rate (melanin generation)) is 52%. Further, the “Inhibition rate (melanin generation)” value in series [1] (concentration 5 μg/ml, cultured 3 days, relative to control) was “Apoptosis”. For the same compound, in series [1] (cultured mouse melanoma cells, comparison with hydroquinone), the “Melanin generation inhibitory effects (in words)” value was “strong effects of inhibiting melanin generation at a low concentration”. In series [2], the Cytotoxicity entry was “serious cytotoxicity”.
As to `CCCCC(CC)C(=O)Oc1cc2oc(-c3ccccc3)cc(=O)c2c(OC(=O)C(CC)CCCC)c1OC(=O)C(CC)CCCC` (stereo not drawn) [Material in Example 15, 5,6,7-tris-(2-ethylhexanoyloxy)-flavone], the inhibition at 5 µg/mL in series [1] (setting [3]) amounted to 39%. The inhibition at 20 µg/mL in series [1] (setting [4]) stood at 72%.
The matching figures for `CCCCC(CC)C(=O)Oc1ccc(C2CC(=O)c3c(OC(=O)C(CC)CCCC)cc(OC(=O)C(CC)CCCC)cc3O2)cc1` (stereo not drawn) [Material in Example 16, 4′,5,7-tris-(2-ethylhexanoyloxy)-flavanone]: 41% and 59%.
For `CCCCC(CC)C(=O)Oc1cccc(OC(=O)C(CC)CCCC)c1` (stereo not drawn) [Material in Example 5, 1,3-bis-(2-ethyl-hexanoyloxy)-benzene], in that order: 45% and 79%.
Take `CCCCCCCCCCCC(=O)Oc1cccc(OC(=O)CCCCCCCCCCC)c1` [Material in Example 7, 1,3-bis-lauroyloxy-benzene]: the inhibition at 5 µg/mL in series [1] (setting [3]) is 21%. The inhibition at 20 µg/mL in series [1] (setting [4]) worked out at 43%.
For `CCCCC(CC)C(=O)Oc1cc(OC(=O)C(CC)CCCC)c2c(c1)OC(c1ccc(OC(=O)C(CC)CCCC)c(OC(=O)C(CC)CCCC)c1)C(OC(=O)C(CC)CCCC)C2` (stereo not drawn) [Material in Example 19, 3,3′,4′,5,7-pentakis-(2-ethylhexanoyloxy)-flavane], in that order: 39% and 69%.
The matching figures for `CCCC(=O)Oc1cccc(OC(=O)CCC)c1` [Material in Example 1, 1,3-bis-butyryloxy-benzene]: 43% and 68%.
As for `CCCCCCCC(=O)Oc1cccc(OC(=O)CCCCCCC)c1` [Material in Example 4, 1,3-bis-octanoyloxy-benzene], the inhibition at 5 µg/mL in series [1] (setting [3]) came to 41%. The inhibition at 20 µg/mL in series [1] (setting [4]) turned out to be 71%.
For `CCCCC(=O)Oc1cccc(OC(=O)CCCC)c1` [Material in Example 2, 1,3-bis-pentanoyloxy-benzene], in that order: 52% and 85%.
The matching figures for `CCCCC(CC)C(=O)Oc1ccc(-c2oc3cc(OC(=O)C(CC)CCCC)cc(OC(=O)C(CC)CCCC)c3c(=O)c2OC(=O)C(CC)CCCC)cc1` (stereo not drawn) [Material in Example 17, 3,5,7,4′-tetrakis-(2-ethylhexanoyloxy)-flavone]: 32% and 69%.
For `CCCCC(CC)C(=O)Oc1ccc(-c2coc3cc(OC(=O)C(CC)CCCC)cc(OC(=O)C(CC)CCCC)c3c2=O)cc1` (stereo not drawn) [Material in Example 12, 4′,5,7-tris-(2-ethylhexanoyloxy)-isoflavone], in that order: 35% and 65%.
Regarding `CCCCC(CC)C(=O)Oc1cccc(OC(=O)C(CC)CCCC)c1OC(=O)C(CC)CCCC` (stereo not drawn) [Material in Example 10, 1,2,3-tris-(2-ethylhexanoyloxy)-benzene], the inhibition at 5 µg/mL in series [1] (setting [3]) came out at 38%. In addition, in series [1] (setting [4]), the inhibition at 20 µg/mL was 65%.
For `CCCCC(CC)C(=O)Oc1ccc(C=Cc2cc(OC(=O)C(CC)CCCC)cc(OC(=O)C(CC)CCCC)c2)cc1` (stereo not drawn) [Material in Example 11, 3,4′,5-tris-(2-ethylhexanoyloxy)-stilbene], in that order: 31% and 54%.
The matching figures for `CCCCC(CC)C(=O)Oc1cc(C=Cc2ccc(OC(=O)C(CC)CCCC)c(OC(=O)C(CC)CCCC)c2)cc(OC(=O)C(CC)CCCC)c1` (stereo not drawn) [Material in Example 18, 3,4,3′,5′-tetrakis-(2-ethylhexanoyloxy)-stilbene]: 47% and 72%.
The matching figures for `CCCCCCCCCC(=O)Oc1cccc(OC(=O)CCCCCCCCC)c1` [Material in Example 6, 1,3-bis-decanoyloxy-benzene]: 32% and 53%.
`CC(C)=CC(=O)Oc1cccc(OC(=O)C=C(C)C)c1` [Material in Example 3, 1,3-bis-(3-methyl-2-butenoyloxy)-benzene]: in series [1] (setting [3]), the inhibition at 5 µg/mL was 53%. Besides, in series [1] (setting [4]), the inhibition at 20 µg/mL was determined as 83%.
The matching figures for `CCCCC(CC)C(=O)Oc1ccc(-c2cc(=O)c3c(OC(=O)C(CC)CCCC)cc(OC(=O)C(CC)CCCC)cc3o2)cc1` (stereo not drawn) [Material in Example 14, 5,7,4′-tris-(2-ethylhexanoyloxy)-flavone]: 31% and 57%.
